Test results reported in publication PMC5983371 (Experimental eye research, 2018).

Biological target: rhodopsin (light-activated, metarhodopsin II) (Bos taurus, UniProt P02699)
Assay: UV/Visible extra Meta II stabilization assay
Type: binding

Sequence of rhodopsin (light-activated, metarhodopsin II) (P02699 whole entry): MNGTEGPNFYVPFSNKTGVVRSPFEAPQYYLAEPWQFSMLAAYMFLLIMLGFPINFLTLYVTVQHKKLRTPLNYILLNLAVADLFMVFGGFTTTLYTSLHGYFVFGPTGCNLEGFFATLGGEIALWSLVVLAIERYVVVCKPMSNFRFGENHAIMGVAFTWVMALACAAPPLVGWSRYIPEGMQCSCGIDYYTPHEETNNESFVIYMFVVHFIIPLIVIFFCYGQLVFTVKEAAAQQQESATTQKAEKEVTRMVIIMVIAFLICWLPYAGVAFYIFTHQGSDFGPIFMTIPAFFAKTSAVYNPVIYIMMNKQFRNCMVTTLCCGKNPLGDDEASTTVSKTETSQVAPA

C[C@H](CCC(=O)NCCS(=O)(=O)O)[C@H]1CC[C@H]2[C@@H]3[C@@H](O)C[C@@H]4C[C@H](O)CC[C@]4(C)[C@H]3CC[C@]12C [TUDCA, Tauroursodeoxycholic acid]
EC50: 450 µM
